Measured values reported in patent US20170112878A1, “PROGRAMMABLE UNIVERSAL CELL RECEPTORS AND METHOD OF USING THE SAME” (Sorrento Therapeutics, Inc., priority 2015, published 2017).

Test system: PUCR comprising 38C2 scFab expressed on the membrane of the NKL cells
Assay: Programming of PUCR on NKL cells with AZD-PEG8-biotin, detected with DTAF-conjugated streptavidin by FACS
Format: cell-based
Conditions: 1 μM or 10 μM, 4° C., 1 hour, PUCR-expressing vs wild-type NKL cells
From the text: To generate constructs encoding a PUCR comprising humanized 38C2 scFab, a nucleic acid encoding the humanized 38C2 scFab was designed by fusing a nucleic acid encoding humanized 38C2 […] LC domain, a nucleic acid encoding a poly-GlySer linker, a nucleic acid encoding the humanized 38C2 VH domain, and a nucleic acid encoding the human gamma 1 HC constant domain 1. The resulting nucleic acid fragment was cloned into a retroviral vector to encode a PUCR comprising an N-terminal leader peptide, followed by the 38C2 scFab, followed by a hybrid CD8 and CD28 hinge, a CD28 transmembrane domain, a CD28 intracellular domain, and a CD3ζ intracellular domain. The nucleic acid and amino acid sequences of the PUCR are shown below. NKL cells were transduced with the viral vector encoding the PUCR.
The PUCR comprising 38C2 scFab expressed on the membrane of the NKL cells was conjugated (i.e., programmed) with the specificity agent AZD-PEG8-biotin (see FIG. 11). […] AZD-PEG8-biotin comprises the reactivity moiety azetidinone which reacts with and forms a stable covalent bond with the reactive lysine of the 38C2 scFab within the PUCR. […] Fluorescence was measured using a ACEA Biosciences NovoCyte flow cytometer. Data was analyzed with FlowJo software, and DTAF-conjugated streptavidin binding was quantified by increased mean fluorescence intensity. […]

## O=C(CCCC[C@@H]1SC[C@@H]2NC(=O)N[C@@H]21)NCCOCCOCCOCCOCCOCCOCCNC(=O)CCOCCOCCC(=O)Nc1ccc(CCC(=O)N2CCC2=O)cc1 [AZD-PEG8-Biotin, 5-[(3aS,4S,6aR)-2-oxo-1,3,3a,4,6,6a-hexahydrothieno[3,4-d]imidazol-4-yl]-N-[2-[2-[2-[2-[2-[2-[2-[3-[2-[3-oxo-3-[4-[3-oxo-3-(2-oxoazetidin-1-yl)propyl]anilino]propoxy]ethoxy]propanoylamino]ethoxy]ethoxy]ethoxy]ethoxy]ethoxy]ethoxy]ethyl]pentanamide]
  conjugation (programming) of PUCR, DTAF-conjugated streptavidin binding: successfully programmed
